Results reported in patent EP4596548A1, “NURR1 MODULATORS” (Ludwig-Maximilians-Universität, priority 2024, dated 2025).
Entries after “also recorded” stand apart in the source; their conditions may differ.

Key:
Nurr1 [1] = target: T1, Nurr1 (Homo sapiens, UniProt P43354); test: Gal4-Nurr1 hybrid reporter gene assay in HEK293T cells; format: cell-based; design: expressed in transfected cells; host or cells: HEK293T; details: for EC50: Gal4-Nurr1 hybrid reporter gene assay; for EC50 / max. activation: mean±SD, n≥3; for max. activation: maximum effect vs. 0.1% DMSO control; for EC50(Nurr1) (max. activation): result in words, at 100 µM
Description: Hybrid reporter gene assays. Nurr1 modulation was determined in a Gal4 hybrid reporter gene assay in HEK293T cells (German Collection of Microorganisms and Cell Culture GmbH, DSMZ) using pFR-Luc (Stratagene, La Jolla, CA, USA; reporter), pRL-SV40 (Promega, Madison, WI, USA; internal control) and pFA-CMV-hNurr1-LBD^14, coding for the hinge region and ligand binding domain of the canonical isoform of human Nurr1. […] After 24 h, medium was changed to Opti-MEM without supplements and cells were transiently transfected using Lipofectamine LTX reagent (Invitrogen, Carlsbad, CA, USA) according to the manufacturer's protocol. Five hours after transfection, cells were incubated with the test compounds in Opti-MEM supplemented with penicillin (100 U/mL), streptomycin (100 µg/mL) and 0.1% DMSO for 16 h before luciferase activity was measured using the Dual-Glo Luciferase Assay System (Promega) according to the manufacturer's protocol on a Tecan Spark luminometer (Tecan Deutschland GmbH, Crailsheim, Germany). Firefly luminescence was divided by Renilla luminescence and multiplied by 1000 resulting in relative light units (RLU) to normalize for transfection efficiency and cell growth. Fold activation was obtained by dividing the mean RLU of test compound by the mean RLU of the untreated control. All samples were tested in at least three biologically independent experiments in duplicates. For dose-response curve fitting and calculation of EC50 values, the equation "[Agonist] vs. response -- Variable slope (four parameters)" was used in GraphPad Prism (version 7.00, GraphPad Software, La Jolla, CA, USA). Selectivity profiling was performed with identical procedures using pFA-CMV-Nur77-LBD^14, pFA-CMV-NOR-1-LBD^14, pFA-CMV-THRα-LBD^39, pFA-CMV-RARα-LBD^40, pFA-CMV-PPARα-LBD^41, pFA-CMV-PPARγ-LBD^41, pFA-CMV-PPARδ-LBD^41, pFA-CMV-LXRα-LBD^37, pFA-CMV-FXR-LBD^42 and pFA-CMV-hRXRα-LBD^43.
Target sequence in this assay (P43354 360-595 limits assumed): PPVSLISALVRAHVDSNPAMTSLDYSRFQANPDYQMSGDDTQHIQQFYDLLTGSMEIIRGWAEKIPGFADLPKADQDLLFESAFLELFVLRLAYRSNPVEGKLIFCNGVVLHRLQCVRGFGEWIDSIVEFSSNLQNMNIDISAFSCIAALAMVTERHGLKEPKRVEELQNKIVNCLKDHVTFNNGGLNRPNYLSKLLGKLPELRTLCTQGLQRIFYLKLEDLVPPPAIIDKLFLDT

Nurr1 [2] = target: T1, Nurr1; test: Ligand efficiency metrics; details: computed according to ref. 29
Target sequence in this assay (P43354 whole entry, the tested form may be a part, canonical isoform): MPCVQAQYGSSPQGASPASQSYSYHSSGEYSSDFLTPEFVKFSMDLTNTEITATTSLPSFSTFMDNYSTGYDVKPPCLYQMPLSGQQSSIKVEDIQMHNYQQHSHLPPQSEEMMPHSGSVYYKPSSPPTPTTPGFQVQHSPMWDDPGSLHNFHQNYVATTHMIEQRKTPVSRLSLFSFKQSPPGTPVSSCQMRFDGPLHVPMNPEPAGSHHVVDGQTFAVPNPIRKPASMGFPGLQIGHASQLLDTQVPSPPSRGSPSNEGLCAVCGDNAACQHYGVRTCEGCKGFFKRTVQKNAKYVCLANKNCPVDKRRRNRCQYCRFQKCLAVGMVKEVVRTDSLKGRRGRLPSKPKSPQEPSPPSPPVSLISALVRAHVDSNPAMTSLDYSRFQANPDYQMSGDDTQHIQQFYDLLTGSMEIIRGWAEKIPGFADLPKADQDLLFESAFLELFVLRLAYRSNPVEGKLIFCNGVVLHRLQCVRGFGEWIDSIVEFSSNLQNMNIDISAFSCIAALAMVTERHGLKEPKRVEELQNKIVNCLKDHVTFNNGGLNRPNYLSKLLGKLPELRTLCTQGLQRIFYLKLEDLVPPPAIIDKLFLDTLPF

Nurr1 LBD = target: T2, Nurr1 LBD (Homo sapiens, UniProt P43354); test: Isothermal titration calorimetry (ITC); format: binding; details: ITC at 25°C
T2 construct: Nurr1 LBD protein (10-30 µM, expressed as described previously^21); made in house
T2 sequence (P43354 360-595 limits assumed): as the sequence (P43354 360-595 limits assumed) above
Description: Isothermal Titration Calorimetry (ITC). ITC experiments were conducted on an Affinity ITC instrument (TA Instruments, New Castle, DE) at 25°C with a stirring rate of 75 rpm. Nurr1 LBD protein (10-30 µM, expressed as described previously^21) in buffer (20 mM Tris pH 7.5, 100 mM NaCl, 5% glycerol) containing 1-4% DMSO was titrated with the test compounds (60-150 µM in the same buffer containing 1-4% DMSO) in 26 injections (1x 1 µL, 25x 3-4 µL) with an injection interval of 150 s. As control experiments, the test compounds were titrated to the buffer, and the buffer was titrated to the Nurr1 LBD protein under otherwise identical conditions. Results were analyzed using NanoAnalyze software (version 3.11.0, TA Instruments, New Castle, DE) with independent binding models.

| SMILES | EC50 (Nurr1 [1]) | max. activation (Nurr1 [1]) | EC50(Nurr1) (max. activation) (Nurr1 [1]) | also measured |
| --- | --- | --- | --- | --- |
| Cc1cc(N)c2cccc(Cl)c2n1 [Compound 4, 8-chloro-2-methylquinolin-4-amine] | 17 ± 6 µM | 1.7±0.1 fold |  | ligand efficiency (LE) (Nurr1 [2]): 0.50; lipophilic ligand efficiency (LLE) (Nurr1 [2]): 1.99; size-independent ligand eff. (SILE) (Nurr1 [2]): 2.21 |
| Cc1nc2cccc(Cl)c2[nH]1 [Compound 7, 4-Chloro-2-methyl-benzimidazole] |  |  | failed to activate Nurr1; also recorded: inactive (100 µM) |  |
| Cc1nc2c(Cl)cccn2c1N [Compound 8, 8-Chloro-2-methylimidazo[1,2-a]pyridine-3-amine] | 7 ± 1 µM | 2.0±0.1 fold |  | Kd (Nurr1 LBD): 2700 nM; ligand efficiency (LE) (Nurr1 [2]): 0.59; lipophilic ligand efficiency (LLE) (Nurr1 [2]): 3.28; size-independent ligand eff. (SILE) (Nurr1 [2]): 2.45 |
| Cc1nc2cc(Cl)ccn2c1N [Compound 9] |  |  | inactive (100 µM) |  |
| Nc1cnc2ccccn12 [Compound 10] |  |  | inactive (100 µM) |  |
| Clc1cccn2ccnc12 [Compound 11] |  |  | inactive (100 µM) |  |
| Nc1cnc2c(Cl)cccn12 [Compound 12, 3-Amino-8-chloroimidazo[1,2-a]pyridine] |  |  | inactive (100 µM) |  |
| Cc1nc2ccccn2c1N [Compound 13] |  |  | inactive (100 µM) |  |
| CC(C)c1nc2c(Cl)cccn2c1N [Compound 14] |  | < 1.2 fold | inactive |  |
| Nc1c(-c2ccccc2)nc2c(Cl)cccn12 [Compound 15] |  | 1.4±0.1 fold |  |  |
| Nc1c(-c2ccoc2)nc2c(Cl)cccn12 [Compound 16] |  | < 1.2 fold | inactive |  |
| Nc1c(-c2ccc(Cl)cc2)nc2c(Cl)cccn12 [Compound 17] | 15 ± 3 µM | 1.7±0.2 fold |  |  |
| Nc1c(-c2cccc(Cl)c2)nc2c(Cl)cccn12 [Compound 18] | 9 ± 3 µM | 1.7±0.1 fold |  |  |
| Nc1c(-c2ccccc2Cl)nc2c(Cl)cccn12 [Compound 19] |  |  | inactive (100 µM) |  |
| Cc1ccc(-c2nc3c(Cl)cccn3c2N)cc1 [Compound 20] | 12 ± 2 µM | 2.0±0.2 fold |  |  |
